Here are results for 13 molecules from US20230265116A1, “DEGRADATION OF (EGFR) BY CONJUGATION OF EGFR INHIBITORS WITH E3 LIGASE LIGAND AND METHODS OF USE” (BEIGENE, LTD., priority 2020, published 2023).

The structures appear in SMILES notation.

The test system of test [1] is EGFR Del19/T790M/C797S (H1975-clone #28). In words: EGFR degradation HTRF assay, H1975-clone #28 DTC cells. It is filed as cell-based. To be noted: H1975 # 28 DTC cells; for DC50: EGFR degradation, IC50 (DC50) from curve fit, read-out: DC50(nM) H1975 # 28 DTC; for Dmax (%) H1975 # 28 DTC: maximum percentage of inhibition (degradation). The gist of the method: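 Engineered H1975 lines (lentiviral mutant EGFR, endogenous EGFR knocked out, single-clone verified); 16h compound, 37° C., 5% CO2, 0.2% DMSO; 8-point 5-fold series from 10 uM final. HTRF lysate read; % degradation vs DMSO, four-parameter fit → DC50, Dmax.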
Background: Time-resolved FRET reads energy transfer from a long-lived donor to a nearby acceptor.

Test [2] addresses T1, EGFR L858R/T790M/C797S (BaF3-LTC cells) (Homo sapiens, UniProt P00533, C797S/L858R/T790M).
T1 construct: expressed in transfected cells; host or cells: BaF3
In words: EGFR degradation HTRF assay, BaF3-LTC cells. It is filed as cell-based. To be noted: BaF3-LTC cells; for DC50: EGFR degradation, IC50 (DC50) from curve fit, read-out: DC50(nM) BaF3-LTC; for Dmax: maximum percentage of inhibition (degradation), read-out: Dmax (%) BaF3-LTC. The method, boiled down: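 Cells treated 16 h at 37 °C, 5% CO2 in medium with 0.2% DMSO; top final concentration 10 uM, 5-fold dilution, 8 doses. Lysates read by HTRF (665/620 nm); degradation % versus DMSO high control, DC50 from four-parameter fit, Dmax as maximal degradation.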

T1 sequence (P00533 25-1210 T790M/C797S/L858R): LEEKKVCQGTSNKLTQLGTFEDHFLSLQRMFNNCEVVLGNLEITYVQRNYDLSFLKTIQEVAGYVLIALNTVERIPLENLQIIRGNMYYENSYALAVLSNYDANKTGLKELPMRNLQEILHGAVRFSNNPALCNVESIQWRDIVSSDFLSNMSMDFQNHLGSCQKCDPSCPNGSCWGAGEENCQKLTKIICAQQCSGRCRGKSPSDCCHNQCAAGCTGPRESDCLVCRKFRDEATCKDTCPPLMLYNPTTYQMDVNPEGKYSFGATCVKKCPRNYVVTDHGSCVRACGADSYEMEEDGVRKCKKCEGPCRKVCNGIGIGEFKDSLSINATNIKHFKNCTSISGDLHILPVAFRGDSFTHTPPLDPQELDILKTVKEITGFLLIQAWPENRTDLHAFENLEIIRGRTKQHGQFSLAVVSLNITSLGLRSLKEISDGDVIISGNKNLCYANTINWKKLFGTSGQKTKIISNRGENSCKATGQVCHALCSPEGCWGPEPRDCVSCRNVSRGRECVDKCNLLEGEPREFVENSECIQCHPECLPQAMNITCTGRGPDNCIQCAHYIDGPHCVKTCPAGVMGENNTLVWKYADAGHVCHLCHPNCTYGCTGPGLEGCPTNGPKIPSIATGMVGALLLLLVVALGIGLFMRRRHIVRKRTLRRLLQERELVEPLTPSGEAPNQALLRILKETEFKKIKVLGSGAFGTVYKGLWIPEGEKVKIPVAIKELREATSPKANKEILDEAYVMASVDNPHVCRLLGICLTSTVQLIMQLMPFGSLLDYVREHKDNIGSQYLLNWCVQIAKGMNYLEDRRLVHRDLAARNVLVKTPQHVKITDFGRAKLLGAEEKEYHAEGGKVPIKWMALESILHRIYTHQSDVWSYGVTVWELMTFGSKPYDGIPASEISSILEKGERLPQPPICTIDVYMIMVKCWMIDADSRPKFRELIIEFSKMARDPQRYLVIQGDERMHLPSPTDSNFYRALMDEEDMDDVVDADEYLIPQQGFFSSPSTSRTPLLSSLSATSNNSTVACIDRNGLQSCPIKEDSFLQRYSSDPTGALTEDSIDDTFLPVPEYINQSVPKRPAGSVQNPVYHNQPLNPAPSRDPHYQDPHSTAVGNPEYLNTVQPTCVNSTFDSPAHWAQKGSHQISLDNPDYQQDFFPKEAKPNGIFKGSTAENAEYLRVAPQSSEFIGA

A word on the DC50: it is the concentration at which degradation of the target reaches its halfway point. Usually Dmax stands for the greatest extent of degradation seen. Take `CCc1cc(Nc2ncc(Br)c(Nc3ccc4c(c3P(C)(C)=O)OCCO4)n2)c(OC)cc1N1CCC(N2CCN(C(=O)[C@@H]3CCN(c4cc(F)c([C@H]5CCC(=O)NC5=O)c(F)c4)C3)CC2)CC1` [Example 686, (R)-3-(4-((R)-3-(4-(1-(4-((5-bromo-4-((5-(dimethylphosphoryl)-2,3-dihydrobenzo[b][1,4]dioxin-6-yl)amino)pyrimidin-2-yl)amino)-2-ethyl-5-methoxyphenyl)piperidin-4-yl)piperazine-1-carbonyl)pyrrolidin-1-yl)-2,6-difluorophenyl)piperidine-2,6-dione]: in test [1], the DC50 was 1.76 nM and the “Dmax (%) H1975 # 28 DTC” value was determined as 88.73%. Also, in test [2], the DC50 came to 4.89 nM and the Dmax amounted to 96.6%.
Take `COc1cc(N2CCC(N3CC(C(=O)N4CCC(c5cc(F)c(C6CCC(=O)NC6=O)c(F)c5)CC4)C3)CC2)c(C)cc1Nc1ncc(Br)c(Nc2ccc3nc(C)ccc3c2P(C)(C)=O)n1` (stereo not shown) [Example 687, 3-(4-(1-(1-(1-(4-((5-bromo-4-((5-(dimethylphosphoryl)-2-methylquinolin-6-yl)amino)pyrimidin-2-yl)amino)-5-methoxy-2-methylphenyl)piperidin-4-yl)azetidine-3-carbonyl)piperidin-4-yl)-2,6-difluorophenyl)piperidine-2,6-dione]: in test [1], the DC50 is 1.38 nM and the “Dmax (%) H1975 # 28 DTC” value was determined as 68.75%. Besides, in test [2], the half-maximal degradation concentration (DC50) was 14.8 nM and the Dmax amounted to 93.3%.
The matching figures for `CCc1cc(Nc2ncc(C(F)(F)F)c(Nc3ccc4nc(C)ccc4c3P(C)(C)=O)n2)c(OC)cc1N1CCC(N2CCN(CCc3cc(F)c(C4CCC(=O)NC4=O)c(F)c3)CC2)CC1` (stereo not shown) [Example 689, 3-(4-(2-(4-(1-(4-((4-((5-(dimethylphosphoryl)-2-methylquinolin-6-yl)amino)-5-(trifluoromethyl)pyrimidin-2-yl)amino)-2-ethyl-5-methoxyphenyl)piperidin-4-yl)piperazin-1-yl)ethyl)-2,6-difluorophenyl)piperidine-2,6-dione]: 3.03 nM, 72.37%, 15.4 nM and 85.1%.
For `CCc1cc(Nc2ncc(Br)c(Nc3ccc4nc(COC)ccc4c3P(C)(C)=O)n2)c(OC)cc1N1CCC(N2CCN(CCc3cc(F)c(C4CCC(=O)NC4=O)c(F)c3)CC2)CC1` (stereo not shown) [Example 690, 3-(4-(2-(4-(1-(4-((5-bromo-4-((5-(dimethylphosphoryl)-2-(methoxymethyl)quinolin-6-yl)amino)pyrimidin-2-yl)amino)-2-ethyl-5-methoxyphenyl)piperidin-4-yl)piperazin-1-yl)ethyl)-2,6-difluorophenyl)piperidine-2,6-dione] the same measures were 0.689 nM, 77.81%, 6.66 nM and 90.6%.
The matching figures for `CCc1ccc2c(P(C)(C)=O)c(Nc3nc(Nc4cc(CC)c(N5CCC(N6CCN(C[C@H]7C[C@H](N(C)c8cc(F)c(C9CCC(=O)NC9=O)c(F)c8)C7)CC6)CC5)cc4OC)ncc3Br)ccc2n1` (stereo partly shown) [Example 691, 3-(4-(((1r,3r)-3-((4-(1-(4-((5-bromo-4-((5-(dimethylphosphoryl)-2-ethylquinolin-6-yl)amino)pyrimidin-2-yl)amino)-2-ethyl-5-methoxyphenyl)piperidin-4-yl)piperazin-1-yl)methyl)cyclobutyl)(methyl)amino)-2,6-difluorophenyl)piperidine-2,6-dione]: 3.3 nM, 71.66%, 24.6 nM and 93.4%.
With `CCc1cc(Nc2ncc(Br)c(Nc3ccc4nc(C)ccc4c3P(C)(C)=O)n2)c(OC)cc1N1CCC(N2CCN(CCC3CN(c4cccc5c4CN(C4CCC(=O)NC4=O)C5=O)C3)CC2)CC1` (stereo not shown) [Example 692, 3-(4-(3-(2-(4-(1-(4-((5-bromo-4-((5-(dimethylphosphoryl)-2-methylquinolin-6-yl)amino)pyrimidin-2-yl)amino)-2-ethyl-5-methoxyphenyl)piperidin-4-yl)piperazin-1-yl)ethyl)azetidin-1-yl)-1-oxoisoindolin-2-yl)piperidine-2,6-dione], in test [1], the DC50 is 0.593 nM and the “Dmax (%) H1975 # 28 DTC” value is 73%. Also, in test [2], the DC50 amounted to 6.68 nM and the Dmax amounted to 91.4%.
The matching figures for `CCc1cc(Nc2ncc(Br)c(Nc3ccc4nc(C)ccc4c3P(C)(C)=O)n2)c(OC)cc1N1CCC(N2CCN(CCc3cc(F)c(C4CCC(=O)NC4=O)c(F)c3)[C@@H](C)C2)CC1` (stereo partly drawn) [Example 693, 3-(4-(2-((S)-4-(1-(4-((5-bromo-4-((5-(dimethylphosphoryl)-2-methylquinolin-6-yl)amino)pyrimidin-2-yl)amino)-2-ethyl-5-methoxyphenyl)piperidin-4-yl)-2-methylpiperazin-1-yl)ethyl)-2,6-difluorophenyl)piperidine-2,6-dione]: 0.812 nM, 66.27%, 13.8 nM and 84.5%.
For `CCc1cc(Nc2ncc(Br)c(Nc3ccc4nc(C)ccc4c3P(C)(C)=O)n2)c(OC)cc1N1CCC(N2CCN(C3CCN(c4cc(F)c(C5CCC(=O)NC5=O)c(F)c4)CC3)CC2)CC1` (stereo not shown) [Example 694, 3-(4-(4-(4-(1-(4-((5-bromo-4-((5-(dimethylphosphoryl)-2-methylquinolin-6-yl)amino)pyrimidin-2-yl)amino)-2-ethyl-5-methoxyphenyl)piperidin-4-yl)piperazin-1-yl)piperidin-1-yl)-2,6-difluorophenyl)piperidine-2,6-dione] the same measures were 0.986 nM, 68.67%, 16.1 nM and 92.2%.
For `CCc1cc(Nc2ncc(Br)c(Nc3ccc4nc(C)ccc4c3P(C)(C)=O)n2)c(OC)cc1N1CCC(N2CCN(CCC3CCN(c4cc(F)c(C5CCC(=O)NC5=O)c(F)c4)CC3)C(=O)C2)CC1` (stereo not shown) [Example 695, 3-(4-(4-(2-(4-(1-(4-((5-bromo-4-((5-(dimethylphosphoryl)-2-methylquinolin-6-yl)amino)pyrimidin-2-yl)amino)-2-ethyl-5-methoxyphenyl)piperidin-4-yl)-2-oxopiperazin-1-yl)ethyl)piperidin-1-yl)-2,6-difluorophenyl)piperidine-2,6-dione] the same measures were 3.06 nM, 68.81%, 12.7 nM and 93.5%.
Consider `CCc1cc(Nc2ncc(Br)c(Nc3ccc4nc(CO)ccc4c3P(C)(C)=O)n2)c(OC)cc1N1CCC(N2CCN(C(=O)[C@@H]3CCN(c4cc(F)c(C5CCC(=O)NC5=O)c(F)c4)C3)CC2)CC1` (stereo partly drawn) [Example 696, 3-(4-((R)-3-(4-(1-(4-((5-bromo-4-((5-(dimethylphosphoryl)-2-(hydroxymethyl)quinolin-6-yl)amino)pyrimidin-2-yl)amino)-2-ethyl-5-methoxyphenyl)piperidin-4-yl)piperazine-1-carbonyl)pyrrolidin-1-yl)-2,6-difluorophenyl)piperidine-2,6-dione], for which, in test [1], the DC50 is 0.647 nM and the “Dmax (%) H1975 # 28 DTC” value was determined as 75.49%. Besides, in test [2], the DC50 was 4.53 nM and the Dmax is 92.3%.
For `CCc1cc(Nc2ncc(Br)c(Nc3ccc4nc(C)ccc4c3P(C)(C)=O)n2)c(OC)cc1N1CCC(N2CCN(C(=O)Cc3cccc4c3n(C)c(=O)n4C3CCC(=O)NC3=O)CC2)CC1` (stereo not shown) [Example 697, 3-(4-(2-(4-(1-(4-((5-bromo-4-((5-(dimethylphosphoryl)-2-methylquinolin-6-yl)amino)pyrimidin-2-yl)amino)-2-ethyl-5-methoxyphenyl)piperidin-4-yl)piperazin-1-yl)-2-oxoethyl)-3-methyl-2-oxo-2,3-dihydro-1H-benzo[d]imidazol-1-yl)piperidine-2,6-dione] the same measures were 1.19 nM, 71.39%, 9.65 nM and 94.1%.
In the case of `CCOc1cc(N2CCC(N3CCN(CCc4c(C(F)(F)F)ccc5c4oc(=O)n5C4CCC(=O)NC4=O)CC3)CC2)c(CC)cc1Nc1ncc(Br)c(Nc2ccc3nc(CC)ccc3c2P(C)(C)=O)n1` (stereo not shown) [Example 724, 3-(7-(2-(4-(1-(4-((5-bromo-4-((5-(dimethylphosphoryl)-2-ethylquinolin-6-yl)amino)pyrimidin-2-yl)amino)-5-ethoxy-2-ethylphenyl)piperidin-4-yl)piperazin-1-yl)ethyl)-2-oxo-6-(trifluoromethyl)benzo[d]oxazol-3(2H)-yl)piperidine-2,6-dione], in test [1], the DC50 was 2.86 nM and the “Dmax (%) H1975 # 28 DTC” value amounted to 75.94%. In test [2], the DC50 came to 55.1 nM and the Dmax turned out to be 85.6%.
The matching figures for `CCOc1cc(N2CCC(N3CCN(CCCc4cc(Cl)cc5c4oc(=O)n5C4CCC(=O)NC4=O)CC3)CC2)c(CC)cc1Nc1ncc(Br)c(Nc2ccc3nc(CC)ccc3c2P(C)(C)=O)n1` (stereo not shown) [Example 726, 3-(7-(3-(4-(1-(4-((5-bromo-4-((5-(dimethylphosphoryl)-2-ethylquinolin-6-yl)amino)pyrimidin-2-yl)amino)-5-ethoxy-2-ethylphenyl)piperidin-4-yl)piperazin-1-yl)propyl)-5-chloro-2-oxobenzo[d]oxazol-3(2H)-yl)piperidine-2,6-dione]: 1.46 nM, 74.13%, 7.11 nM and 96.7%.
